Measurements taken from patent publication US10844064B2, “sGC stimulators” (Cyclerion Therapeutics, Inc., priority 2014, dated 2020).
Values joined by “and” are separate entries in the source; they are usually repeats but may differ in a detail not shown here. Equal values may be shown once.

The compounds below were run against T1, sGC enzyme (Homo sapiens, UniProt Q02108+Q02153) (assay: cGMP GloSensor cell-based assay, 384-well format (Example 2B)). Conditions: HEK293 GloSensor 40F cGMP cells, 10 μM DETA-NONOate; 50% of high control response (Compound Y); read-out: sGC_HEK_GloSensor EC50/IC50 Abs (Norm) (nM) Binned.
T1 construct: host or cells: HEK293 expressing GloSensor 40F cGMP
T1 sequence (Q02108 1-690): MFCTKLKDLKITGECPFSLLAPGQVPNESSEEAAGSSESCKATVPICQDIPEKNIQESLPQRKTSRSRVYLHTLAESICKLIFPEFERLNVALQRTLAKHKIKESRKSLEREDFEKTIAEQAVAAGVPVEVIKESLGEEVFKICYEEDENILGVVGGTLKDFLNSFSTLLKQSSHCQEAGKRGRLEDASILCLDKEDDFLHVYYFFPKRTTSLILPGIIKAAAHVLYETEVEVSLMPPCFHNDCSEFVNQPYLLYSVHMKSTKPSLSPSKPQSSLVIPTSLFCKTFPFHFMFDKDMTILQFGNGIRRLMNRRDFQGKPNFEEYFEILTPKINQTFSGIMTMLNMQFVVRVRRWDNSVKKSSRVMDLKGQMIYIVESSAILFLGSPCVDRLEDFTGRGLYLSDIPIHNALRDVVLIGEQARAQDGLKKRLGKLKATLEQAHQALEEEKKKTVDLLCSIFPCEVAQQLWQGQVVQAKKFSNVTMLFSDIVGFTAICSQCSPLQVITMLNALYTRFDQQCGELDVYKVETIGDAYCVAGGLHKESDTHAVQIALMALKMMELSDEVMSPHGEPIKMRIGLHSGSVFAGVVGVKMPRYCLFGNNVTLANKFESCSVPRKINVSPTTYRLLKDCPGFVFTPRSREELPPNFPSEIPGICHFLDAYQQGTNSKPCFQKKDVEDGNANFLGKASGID
T1 sequence (Q02153 1-619): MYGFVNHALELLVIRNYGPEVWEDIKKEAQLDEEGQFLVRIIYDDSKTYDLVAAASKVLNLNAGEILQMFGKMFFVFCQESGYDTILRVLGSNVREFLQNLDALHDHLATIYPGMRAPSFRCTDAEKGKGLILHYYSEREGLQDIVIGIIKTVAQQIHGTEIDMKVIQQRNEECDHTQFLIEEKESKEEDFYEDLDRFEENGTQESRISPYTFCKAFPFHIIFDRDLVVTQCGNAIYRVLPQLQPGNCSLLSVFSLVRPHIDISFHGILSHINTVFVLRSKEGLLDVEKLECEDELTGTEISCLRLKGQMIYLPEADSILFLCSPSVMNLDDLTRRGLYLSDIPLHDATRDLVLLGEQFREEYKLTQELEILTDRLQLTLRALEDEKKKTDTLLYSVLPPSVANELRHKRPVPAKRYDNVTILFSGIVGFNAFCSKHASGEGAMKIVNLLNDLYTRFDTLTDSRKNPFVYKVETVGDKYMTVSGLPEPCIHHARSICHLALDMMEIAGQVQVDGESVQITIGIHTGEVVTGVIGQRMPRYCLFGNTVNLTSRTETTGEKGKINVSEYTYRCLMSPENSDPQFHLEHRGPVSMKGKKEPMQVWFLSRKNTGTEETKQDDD
Description: (§1) Data were normalized to a high control using the following equation: 100*(Sample—Low Control)/(High Control—Low Control), where the low control is the average of 16 samples treated with 1% DMSO, and the high control is the average of 16 samples treated with 30 μM of Compound Y depicted below. Data were fit using a 4-parameter fit (log(agonist) vs. response variable slope) using GraphPad Prism Software v.5. n=2 for all compounds. […] Compounds failing to elicit a minimum response of 50% are reported as >30 μM. For compounds run in duplicate or n higher than 2, the result herein given is the geometric mean of the several results obtained.
Human embryonic kidney cells (HEK293) cells expressing GloSensor™ 40F cGMP (Part No: CS182801, Promega) were used to evaluate the activity of test compounds. The luminescent biosensors (engineered luciferase) that were incorporated into these cells detect cGMP formed by the compounds stimulating the sGC enzyme and emit luminescence.
cGMP GloSensor cells were maintained in Dulbecco's Modification of Eagle's Medium (DMEM) supplemented with fetal bovine serum (FBS) (10% final) and hygromycine (200 μg/ml). The day before assay, cells were plated in DMEM with 10% FBS in a 50 μL volume at a density of 1.5×10^4 cells/well in a poly-D-lysine coated 384-well flat white-bottom plate (Corning Cat No 35661). Cells were incubated overnight at 37° C. in a humidified chamber with 5% CO2. The next day, medium was removed and cells were replaced with 40 μl/well of GloSensor™, […] (Promega Cat No E1291). Cells were treated for 90 minutes at 25° C. to allow the substrate to equilibrate in the cells. Test compounds and Diethylenetriamine NONOate (DETA-NONOate) was diluted to […] in serum-free CO2 independent medium and serally diluted at 4× dilutions to create 5× dose curve from which 10 ul was added to the wells (x uM concentration for test compound solution and 10 μM concentration for DETA-NONOate solution; wherein x is one of the following final concentrations).
For the kinetics studies, luminescense was measured right away for 0.2 sec per well with Envision (Perkin Elmer model No). For endpoint SAR screening, data were collected after 55 min incubation at room temperature.
Data analysis was carried out as indicated above in Example 2A.

| Compound | EC50 |
| --- | --- |
| COc1cc(-c2nc(N)c3c(n2)NC(=O)C3(C)C)nn1Cc1cncnc1 [Compound I-92, 4-amino-2-(5-methoxy-1-(pyrimidin-5-ylmethyl)-1H-pyrazol-3-yl)-5,5-dimethyl-5H-pyrrolo[2,3-d]pyrimidin-6(7H)-one] | > 1000 nM |
| COc1cc(-c2ncc3c(n2)NC(=O)C3(C)C)nn1Cc1ccc(C(F)(F)F)c(F)c1 [Compound I-64] | > 1000 nM |
| COc1cn(-c2nc(O)c3c(n2)NC(=O)C3(C)C)nc1Cc1ccccc1F [Compound I-83] | < 100 nM |
| COc1nc(-c2ccn(Cc3ccccc3F)n2)nc2c1C(C)(C)C(=O)N2 [Compound I-78] | > 1000 nM |
| COc1cc(-c2ncc3c(n2)N(C)C(=O)C3(C)C)nn1Cc1ccccc1F [Compound I-26] | > 1000 nM |
| Cc1nc(-c2ncc3c(n2)NC(=O)C3(C)C)nn1Cc1ccccc1F [Compound I-89] | > 1000 nM |
| COc1cc(-c2nc(N)c3c(n2)NC(=O)C3(C)C)nn1Cc1ccccc1 [Compound I-51, 4-amino-2-(1-benzyl-5-methoxy-1H-pyrazol-3-yl)-5,5-dimethyl-5H-pyrrolo-[2,3-d]pyrimidin-6(7H)-one] | < 100 nM |
| CC1(C)C(=O)Nc2nc(-n3cc(-c4ccon4)c(Cc4ccccc4F)n3)nc(N)c21 [Compound I-80, 4-amino-2-(3-(2-fluorobenzyl)-4-(isoxazol-3-yl)-1H-pyrazol-1-yl)-5,5-dimethyl-5H-pyrrolo[2,3-d]pyrimidin-6(7H)-one] | < 100 nM |
| COc1cc(-c2ncc3c(n2)NC(=O)C3(C)C)nn1Cc1cccc(Cl)c1 [Compound I-59] | 100 to 1000 nM |
| CC1(C)C(=O)Nc2nc(-n3cc(-c4ccon4)c(Cc4ccccc4F)n3)ncc21 [Compound I-81, 2-(3-(2-fluorobenzyl)-4-(isoxazol-3-yl)-1H-pyrazol-1-yl)-5,5-dimethyl-5H-pyrrolo[2,3-d]pyrimidin-6(7H)-one] | 100 to 1000 nM |
| CC1(C)C(=O)Nc2nc(-c3cc(O)n(Cc4ccccc4F)n3)ncc21 [Compound I-29] | > 1000 nM |
| CC1(C)C(=O)Nc2nc(-c3cc(C#N)n(Cc4ccccc4F)n3)ncc21 [Compound I-45] | < 100 nM |
| CC1(C)C(=O)Nc2nc(-c3cc(OC(F)F)n(Cc4ccccc4F)n3)nc(O)c21 [Compound I-32] | 100 to 1000 nM |
| COc1cc(-c2nc(O)c3c(n2)NC(=O)C3(C)C)nn1Cc1ccccc1F [Compound I-28] | 100 to 1000 nM |
| CC1(C)C(=O)Nc2nc(-n3cc(O)c(Cc4ccccc4F)n3)ncc21 [Compound I-37] | > 1000 nM |
| COc1cn(-c2nc(N)c3c(n2)NC(=O)C3(C)C)nc1Cc1ccccc1F [Compound I-82, 4-amino-2-(3-(2-fluorobenzyl)-4-methoxy-1H-pyrazol-1-yl)-5,5-dimethyl-5H-pyrrolo[2,3-d]pyrimidin-6(7H)-one] | < 100 nM |
| Cc1cn(-c2nc(O)c3c(n2)NC(=O)C3(C)C)nc1Cc1ccccc1F [Compound I-86] | 100 to 1000 nM |
| COc1ccc(CN2C(=O)C(C)(C)c3nnc(-n4cc(OC)c(Cc5ccccc5F)n4)nc32)cc1 [Compound I-91, 3-(3-(2-fluorobenzyl)-4-methoxy-1H-pyrazol-1-yl)-5-(4-methoxybenzyl)-7,7-dimethyl-5H-pyrrolo[2,3-e][1,2,4]triazin-6(7H)-one] | > 30000 nM |
| COc1cc(-c2ncc3c(n2)NC(=O)C3(C)C)nn1Cc1cccc(C#N)c1 [Compound I-60] | 100 to 1000 nM |
| CC1(C)C(=O)Nc2nc(-c3ccn(Cc4ccccc4F)n3)nc(O)c21 [Compound I-79] | > 1000 nM |
| Cn1cc(-c2nc(N)c3c(n2)NC(=O)C3(C)C)nc1Cc1ccccc1F [Compound I-12] | > 1000 nM and < 100 nM |
| COc1cc(-c2ncc3c(n2)NC(=O)C3(C)C)nn1Cc1ccccc1Cl [Compound I-56] | 100 to 1000 nM |
| CC(=O)c1cc(-c2nnc3c(n2)NC(=O)C3(C)C)nn1Cc1ccccc1F [Compound I-70] | 100 to 1000 nM |
| CCCOc1cc(-c2ncc3c(n2)NC(=O)C3(C)C)nn1Cc1ccccc1F [Compound I-35] | > 1000 nM |
| COc1cc(-c2ncc3c(n2)NC(=O)C3(C)C)nn1Cc1ccc(C(F)(F)F)cc1 [Compound I-62] | > 1000 nM |
| CC1(C)C(=O)Nc2nc(-c3ccn(Cc4ccccc4F)n3)nc(NCC3CC3)c21 [Compound I-75] | 100 to 1000 nM |
| COc1cn(-c2ncc3c(n2)NC(=O)C3(C)C)nc1Cc1ccccc1F [Compound I-38] | < 100 nM |
| COc1c(C)c(-c2nc(N)c3c(n2)NC(=O)C3(C)C)nn1Cc1ccccc1F [Compound I-41] | 100 to 1000 nM |

What follows are compounds tested against T2, soluble guanylate cyclase (sGC) (Homo sapiens, UniProt Q02108+Q02153) (assay: sGC-HEK-cGMP assay with LC/MS detection (Example 2A)). Conditions: HEK293 cells, 10 μM DETA-NONOate, 20 min; concentration eliciting 50% of high control response (30 μM Compound Y); read-out: Absolute EC50 (nM) - binned.
T2 construct: endogenously expressing soluble guanylate cyclase (sGC); endogenous in cells; host or cells: HEK293
T2 sequence (Q02108 1-690): T1 sequence (Q02108 1-690)
T2 sequence (Q02153 1-619): T1 sequence (Q02153 1-619)
Assay type: cell-based
Description: Human embryonic kidney cells (HEK293), endogenously expressing soluble guanylate cyclase (sGC), were used to evaluate the activity of test compounds. Compounds stimulating the sGC enzyme should cause an increase in the intracellular concentration of cGMP. HEK 293 cells were seeded in Dulbecco's Modification of Eagle's Medium supplemented with fetal bovine serum (10% final) and penicillin (100 U/mL)/streptomycin (100 μg/mL) in a 50 μL, volume at a density of 1.5×10^4 cells/well in a poly-D-lysine coated 384 well flat bottom plate. Cells were incubated overnight at 37° C. in a humidified chamber with 5% CO2. Medium was aspirated and cells were washed with 1× Hank's Buffered Saline Salt Solution (50 μL). Cells were then incubated for 15 minutes at 37° C. with 50 μL of a 0.5 mM 3-isobutyl-1-methylxanthine (IBMX) solution. Test article and Diethylenetriamine NONOate (DETA-NONOate) solutions (x μM concentration for test article solution and 10 μM concentration for DETA-NONOate solution; wherein x is one of the following concentrations);
were then added to the assay mixture and the resulting mixture incubated at 37° C. for 20 minutes. After the 20 minute incubation, the assay mixture was aspirated and 10% acetic acid containing 150 ng/mL+3-cGMP (internal standard for LCMS) (50 μL) was added to the cells. The plate was incubated at 4° C. for 30 minutes in the acetic acid solution to stop the reaction and lyse the cells. The plates were then centrifuged at 1,000 g for 3 minutes at 4° C. and the supernatant transferred to a clean reaction plate for LCMS analysis.
cGMP concentrations were determined from each sample using the LCMS conditions below (Table 2) and calculated standard curve. The standard curve was prepared in 10% acetic acid with 150 ng/mL+3cGMP (isotopically labelled cGMP with a weight 3 units higher than wild type) with the following final concentrations of cGMP in ng/mL: 1, 5, 10, 50, 100, 250, 500, 1000, 2000.
as §1

| Compound | EC50 [nM] |
| --- | --- |
| CCOC(=O)C1(C)C(=O)Nc2nc(-c3cc(COC)n(Cc4ccccc4F)n3)nc(N)c21 (centres unmarked) [Compound I-21] | > 1000 |
| Fc1ccccc1Cn1nc(-c2ncc3[nH]nnc3n2)cc1-c1ccon1 [Compound I-15] | > 1000 |
| COCc1cc(-c2nc(N)c3c(n2)NC(=O)C3(C)C(N)=O)nn1Cc1ccccc1F (centres unmarked) [Compound I-22] | > 1000 |
| CCOC(=O)C1(C)C(=O)Nc2nc(-c3cc(-c4ccon4)n(Cc4ccccc4F)n3)nc(Br)c21 (centres unmarked) [Compound I-17] | 100 to 1000 |
